What was measured:
C57BL/6J mice = assay: high fat diet fed C57BL/6J mice treated with Rimonabant; assay type: in vivo, mouse; conditions: HFD mice, 10 mg.kg−1.day−1 for one month
From the text: C57BL/6J mice, which are obesity-prone (Collins S. et al., 2004) were fed for 6 months with a high fat diet (HFD).

Sipa1l1 = assay: retroviral shRNA transduction of 3T3-L1 cells, Sipa1l1 mRNA by RT-PCR; assay type: cell-based, mouse; conditions: day 0 prior differentiation
Method: 3T3-L1 cells were cultured in DMEM (Gibco) with 10% FBS (Gibco) at 5% CO2. After retroviral infection (see below), cells were allow to grow to confluence in either 100-mm or 60-mm dishes in DMEM with 10% FBS. Once confluence was reached, cells were exposed to differentiation medium containing dexamethasone (1 μM), insulin (5 μg/ml), and isobutylmethylxanthine ([…]) (DMI). After 2 days cells were maintained in medium containing insulin (5 μg/ml) until ready for harvest at 7 days.
Retroviruses were constructed in the RNAi-Ready pSIREN-RetroQ ZsGreen (pSIREN Clontech) or pMSCV puromycin plasmid (pMSCV, Clontech). Viral constructs were transfected using calcium-phosphate method described in Jordan M. et al (2004) into 293 HEK packaging cells along with constructs encoding gag-pol and the VSV-G protein. Supernatants were harvested after 48 h in presence of 3 μm of Trichostatin A (Sigma) and either used immediately or snap frozen and stored at −80° C. for later use. Viral supernatants were added to the cells for 6 hours in the presence of polybrene (4 μg/ml) and diluted two times with fresh medium for the next 15 hours.
Total RNA was isolated from cultured cells using peqGOLD TriFast reagent according to the manufacturer's instructions (Axonlab). First strand cDNA was synthesized from 0.5 μg of total RNA using random primers and Superscript II (Invitrogen). […]

Cc1c(C(=O)NN2CCCCC2)nn(-c2ccc(Cl)cc2Cl)c1-c1ccc(Cl)cc1 [Rimonabant]
body weight (C57BL/6J mice): normalize | glucose tolerance (C57BL/6J mice): normalized

B1: shLuc: control shRNA against the firefly luciferase protein (SEQ ID NO. 7) (nucleic acid)
chain: GATCCGTGCGTTGCTAGTACCAATTCAAGAGATTGGTACTAGCAACGCACTTTTTTACGCGTG
modifications: the letters are possibly those of the target site
knockdown of Sipa1l1 mRNA (Sipa1l1): no inhibition
